The subject of the test is HCV (Ib) RNA replication. The test is described as follows: Cell-based luciferase reporter HCV (1b) RNA replication assay (replicon cell lines Huh-7 5.2 and ET). Also on record: species or system Hepatitis C virus. The following applies: Hepatitis C virus, Huh-7, 96 h, HCV 1b genotype replicon, luciferase readout, 4 days incubation; read-out: EC50_1b. In short, it runs like this:
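Huh-7-derived 5.2 or ET replicon cells carrying a firefly luciferase reporter were seeded at ~3000 cells/well in medium without G418 or phenol red. Compound was added after 3-4 h, followed by 4 days at 37 °C. Luciferase readout was used, with IC50 fitted by nonlinear regression from eleven concentrations in duplicate.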
(In general: A reporter such as luciferase makes a cellular process visible.)
As to `C[C@H](C(=O)N1CCC[C@H]1c1nc2cc(C#Cc3ccc4[nH]c([C@@H]5CCCN5C(=O)[C@@H](C)N5CCCC5=O)nc4c3)ccc2[nH]1)N1CCCC1=O` [Compound 83], the EC50 was at most 5 nM.

On to `CC(C)C[C@@H](C(=O)N1CCC[C@H]1c1nc2cc(C#Cc3ccc4[nH]c([C@@H]5CCCN5C(=O)[C@H](CC(C)C)N5CCCC5=O)nc4c3)ccc2[nH]1)N1CCCC1=O` [Compound 84], for which the EC50 was at most 5 nM.

`CC(C)C(NC(=O)C1CCCCC1)C(=O)N1CCC[C@H]1c1nc2cc(C#Cc3ccc4[nH]c([C@@H]5CCCN5C(=O)C(NC(=O)C5CCCCC5)C(C)C)nc4c3)ccc2[nH]1` (some centres unmarked) [Compound 85]: the EC50 was 5 to 5000 nM.

On to `O=C1CC[C@H](C(=O)N2CCC[C@H]2c2nc3cc(C#Cc4ccc5[nH]c([C@@H]6CCCN6C(=O)[C@H]6CCC(=O)N6)nc5c4)ccc3[nH]2)N1` [Compound 86], for which the EC50 was above 5000 nM.

For `CC(C)[C@H](NC(=O)[C@@H]1CCC(=O)N1)C(=O)N1CCC[C@H]1c1nc2cc(C#Cc3ccc4[nH]c([C@@H]5CCCN5C(=O)[C@@H](NC(=O)[C@@H]5CCC(=O)N5)C(C)C)nc4c3)ccc2[nH]1` [Compound 87], the EC50 was above 5000 nM.

In the case of `CC(C)(NC(=O)OCc1ccccc1)C(=O)N1CCC[C@H]1c1nc2cc(C#Cc3ccc4[nH]c([C@@H]5CCCN5C(=O)C(C)(C)NC(=O)OCc5ccccc5)nc4c3)ccc2[nH]1` [Compound 88], the EC50 was 5 to 5000 nM.

Consider `CC(C)[C@H](NC(=O)Cc1c[nH]c2ccccc12)C(=O)N1CCC[C@H]1c1nc2cc(C#Cc3ccc4[nH]c([C@@H]5CCCN5C(=O)[C@@H](NC(=O)Cc5c[nH]c6ccccc56)C(C)C)nc4c3)ccc2[nH]1` [Compound 89], for which the EC50 fell in the range of 5 to 5000 nM.

With `COC(=O)N[C@H](C(=O)N1CC(F)(F)C[C@H]1c1nc2cc(C#Cc3ccc4nc([C@@H]5CC(F)(F)CN5C(=O)[C@@H](NC(=O)OC)C(C)C)[nH]c4c3)ccc2[nH]1)C(C)C` [Compound 90], the EC50 is at most 5 nM.

As for `CC(C)[C@H](NC(=O)N(C)C)C(=O)N1CCC[C@H]1c1nc2cc(C#Cc3ccc4nc([C@@H]5CCCN5C(=O)[C@@H](NC(=O)N(C)C)C(C)C)[nH]c4c3)ccc2[nH]1` [Compound 91], the EC50 was at most 5 nM.

Consider `CC(C)(C)OC(=O)N1CCCC[C@H]1c1nc2cc(C#Cc3ccc4[nH]c([C@@H]5CCCCN5C(=O)OC(C)(C)C)nc4c3)ccc2[nH]1` [Compound 92], for which the EC50 was at most 5 nM.

Take `COC(=O)NCC(=O)N1CCC[C@H]1c1nc2cc(C#Cc3ccc4nc([C@@H]5CCCN5C(=O)CNC(=O)OC)[nH]c4c3)ccc2[nH]1` [Compound 93]: the EC50 fell in the range of 5 to 5000 nM.

On to `COC(=O)N[C@H](C(=O)N1CCC[C@H]1c1nc2cc(C#Cc3ccc4[nH]c([C@@H]5CCCN5C(=O)[C@@H](NC(=O)OC)C5CC5)nc4c3)ccc2[nH]1)C1CC1` [Compound 94], for which the EC50 fell in the range of 5 to 5000 nM.

As for `COC(=O)N[C@H](C(=O)N1CCC[C@H]1c1nc2cc(C#Cc3ccc4[nH]c([C@@H]5CCCN5C(=O)[C@@H](NC(=O)OC)C5CCCCC5)nc4c3)ccc2[nH]1)C1CCCCC1` [Compound 95], the EC50 is at most 5 nM.

For `CC(=O)N[C@H](C(=O)N1CCC[C@H]1c1nc2cc(C#Cc3ccc4[nH]c([C@@H]5CCCN5C(=O)[C@@H](NC(C)=O)C(C)C)nc4c3)ccc2[nH]1)C(C)C` [Compound 96], the EC50 was 5 to 5000 nM.

For `CC(=O)N[C@H](C(=O)N1CCC[C@H]1c1nc2cc(C#Cc3ccc4[nH]c([C@@H]5CCCN5C(=O)[C@H](NC(C)=O)C(C)C)nc4c3)ccc2[nH]1)C(C)C` [Compound 97], the EC50 fell in the range of 5 to 5000 nM.

As for `CC(=O)N[C@@H](C(=O)N1CCC[C@@H]1c1nc2cc(C#Cc3ccc4[nH]c([C@H]5CCCN5C(=O)[C@H](NC(C)=O)C(C)C)nc4c3)ccc2[nH]1)C(C)C` [Compound 98], the EC50 lay in the range of 5 to 5000 nM.

On to `O=C([C@H]1C[C@@H](O)CN1)N1CCC[C@H]1c1nc2cc(C#Cc3ccc4[nH]c([C@@H]5CCCN5C(=O)[C@H]5C[C@@H](O)CN5)nc4c3)ccc2[nH]1` [Compound 99], for which the EC50 is 5 to 5000 nM.

Consider `O=C([C@H]1C[C@H](O)CN1)N1CCC[C@H]1c1nc2cc(C#Cc3ccc4[nH]c([C@@H]5CCCN5C(=O)[C@H]5C[C@H](O)CN5)nc4c3)ccc2[nH]1` [Compound 100], for which the EC50 is above 5000 nM.

In the case of `CC(C)[C@H](NC(=O)O[C@H]1CCOC1)C(=O)N1CCC[C@H]1c1nc2cc(-c3ccc(-c4ccc5[nH]c([C@@H]6CCCN6C(=O)[C@@H](NC(=O)O[C@H]6CCOC6)C(C)C)nc5c4)s3)ccc2[nH]1` [Compound 101], the EC50 fell in the range of 5 to 5000 nM.

Consider `COC(=O)N[C@@H](C(=O)N1CC[C@H]1c1nc2cc(C#CC#Cc3ccc4[nH]c([C@@H]5CCN5C(=O)[C@H](NC(=O)OC)C(C)C)nc4c3)ccc2[nH]1)C(C)C` [Compound 102], for which the EC50 is at most 5 nM.

As for `O=C(CC1CCCCC1)N1CCC[C@H]1c1nc2cc(C#Cc3ccc4[nH]c([C@@H]5CCCN5C(=O)CC5CCCCC5)nc4c3)ccc2[nH]1` [Compound 103], the EC50 was in the range of 5 to 5000 nM.

Take `CC[C@@H](NC(C)=O)C(=O)N1CCC[C@H]1c1nc2cc(C#Cc3ccc4[nH]c([C@@H]5CCCN5C(=O)[C@@H](CC)NC(C)=O)nc4c3)ccc2[nH]1` [Compound 104]: the EC50 was in the range of 5 to 5000 nM.

For the molecule `COCCCC(=O)N1CCC[C@H]1c1nc2cc(C#Cc3ccc4[nH]c([C@@H]5CCCN5C(=O)CCCOC)nc4c3)ccc2[nH]1` [Compound 105], the EC50 was 5 to 5000 nM.

Turning to `O=C(CC1CCOCC1)N1CCC[C@H]1c1nc2cc(C#Cc3ccc4[nH]c([C@@H]5CCCN5C(=O)CC5CCOCC5)nc4c3)ccc2[nH]1` [Compound 106], the EC50 fell in the range of 5 to 5000 nM.

Consider `CCOCCC(=O)N1CCC[C@H]1c1nc2cc(C#Cc3ccc4[nH]c([C@@H]5CCCN5C(=O)CCOCC)nc4c3)ccc2[nH]1` [Compound 107], for which the EC50 lay in the range of 5 to 5000 nM.

`O=C(CC1CC1)N1CCC[C@H]1c1nc2cc(C#Cc3ccc4[nH]c([C@@H]5CCCN5C(=O)CC5CC5)nc4c3)ccc2[nH]1` [Compound 108]: the EC50 was 5 to 5000 nM.

Take `CCC[C@H](NC(C)=O)C(=O)N1CCC[C@H]1c1nc2cc(C#Cc3ccc4[nH]c([C@@H]5CCCN5C(=O)[C@H](CCC)NC(C)=O)nc4c3)ccc2[nH]1` [Compound 109]: the EC50 fell in the range of 5 to 5000 nM.

As to `CC(=O)NC1(C(=O)N2CCC[C@H]2c2nc3cc(C#Cc4ccc5[nH]c([C@@H]6CCCN6C(=O)C6(NC(C)=O)CC6)nc5c4)ccc3[nH]2)CC1` [Compound 110], the EC50 was above 5000 nM.

With `CC[C@H](NC(C)=O)C(=O)N1CCC[C@H]1c1nc2cc(C#Cc3ccc4[nH]c([C@@H]5CCCN5C(=O)[C@H](CC)NC(C)=O)nc4c3)ccc2[nH]1` [Compound 111], the EC50 is 5 to 5000 nM.

As to `CC(C)(C)OC(=O)N1CCCC[C@H]1c1nc2cc(-c3ccc(-c4ccc5nc([C@@H]6CCCCN6C(=O)OC(C)(C)C)[nH]c5c4)s3)ccc2[nH]1` [Compound 112], the EC50 was in the range of 5 to 5000 nM.

For `CC(C)(C)OC(=O)N[C@H](CC1CCC1)C(=O)N1CCC[C@H]1c1nc2cc(C#Cc3ccc4[nH]c([C@@H]5CCCN5C(=O)[C@@H](CC5CCC5)NC(=O)OC(C)(C)C)nc4c3)ccc2[nH]1` [Compound 113], the EC50 is at most 5 nM.

With `CC(C)(C)OC(=O)N1CC(F)(F)C[C@H]1C(=O)N1CCC[C@H]1c1nc2cc(C#Cc3ccc4[nH]c([C@@H]5CCCN5C(=O)[C@@H]5CC(F)(F)CN5C(=O)OC(C)(C)C)nc4c3)ccc2[nH]1` [Compound 114], the EC50 was 5 to 5000 nM.

As to `COC(=O)N[C@H](C(=O)N1CCC[C@H]1c1nc2cc(C#Cc3ccc4nc([C@@H]5CCCN5C(=O)[C@@H](NC(=O)OC)C5CCCCC5)[nH]c4c3)ccc2[nH]1)C(C)C` [Compound 115], the EC50 was at most 5 nM.

On to `COC(=O)N[C@H](C(=O)N1CCC[C@H]1c1nc2cc(CCc3ccc4[nH]c([C@@H]5CCCN5C(=O)[C@H](NC(=O)OC)C(C)C)nc4c3)ccc2[nH]1)C(C)C` [Compound 116], for which the EC50 was at most 5 nM.

Take `COC(=O)N[C@H](C(=O)N1CCC[C@H]1c1nc2cc(C#Cc3ccc4nc([C@@H]5CCCN5C(=O)[C@H](C(C)C)N(C)C(=O)OC)[nH]c4c3)ccc2[nH]1)C(C)C` [Compound 117]: the EC50 is at most 5 nM.

For `CC[C@H](NC(=O)OC)C(=O)N1CCC[C@H]1c1nc2cc(C#Cc3ccc4[nH]c([C@@H]5CCCN5C(=O)[C@H](CC)NC(=O)OC)nc4c3)ccc2[nH]1` [Compound 118], the EC50 was at most 5 nM.

As to `O=C(OCc1ccccc1)N1COC[C@@H]1C(=O)N1CCC[C@H]1c1nc2cc(C#Cc3ccc4[nH]c([C@@H]5CCCN5C(=O)[C@H]5COCN5C(=O)OCc5ccccc5)nc4c3)ccc2[nH]1` [Compound 119], the EC50 was at most 5 nM.

As to `O=C(C1CCCC1)N1CCCC[C@H]1c1nc2cc(C#CC#Cc3ccc4[nH]c([C@@H]5CCCCN5C(=O)C5CCCC5)nc4c3)ccc2[nH]1` [Compound 120], the EC50 is above 5000 nM.

For the molecule `CC(C)(C)OC(=O)NC(CC1CCC1)C(=O)N1CCC[C@H]1c1nc2cc(C#Cc3ccc4[nH]c([C@@H]5CCCN5C(=O)[C@H](CC5CCC5)NC(=O)OC(C)(C)C)nc4c3)ccc2[nH]1` (some centres unmarked) [Compound 121], the EC50 fell in the range of 5 to 5000 nM.

`COC(=O)N[C@H](C(=O)N1CCC[C@H]1c1nc2cc(C#Cc3ccc4nc([C@@H]5CCCN5C(=O)NC(C)C)[nH]c4c3)ccc2[nH]1)C(C)C` [Compound 122]: the EC50 was at most 5 nM.

Regarding `COC(=O)N[C@H](C(=O)N1CCC[C@H]1c1nc2cc(C#Cc3ccc4nc([C@@H]5CCCN5C(=O)NC5CCCCC5)[nH]c4c3)ccc2[nH]1)C(C)C` [Compound 123], the EC50 is 5 to 5000 nM.

For `CC(C)(C)CC(=O)N1CCC[C@H]1c1nc2cc(C#Cc3ccc4[nH]c([C@@H]5CCCN5C(=O)CC(C)(C)C)nc4c3)ccc2[nH]1` [Compound 124], the EC50 lay within 5 to 5000 nM.

As to `O=C(CC1CCCC1)N1CCC[C@H]1c1nc2cc(C#Cc3ccc4[nH]c([C@@H]5CCCN5C(=O)CC5CCCC5)nc4c3)ccc2[nH]1` [Compound 125], the EC50 lay in the range of 5 to 5000 nM.

Regarding `CC(C)(C)OC(=O)NC(C)(C)C(=O)N1CCC[C@H]1c1nc2cc(C#Cc3ccc4[nH]c([C@@H]5CCCN5C(=O)C(C)(C)NC(=O)OC(C)(C)C)nc4c3)ccc2[nH]1` [Compound 128], the EC50 fell in the range of 5 to 5000 nM.

The values are drawn from US8354419B2, “Benzimidazole analogues for the treatment or prevention of flavivirus infections” (Vertex Pharmaceuticals Incorporated, priority 2009, dated 2013).
